This experiment is filed under the species Rattus norvegicus. Nature of the experiment: Selectivity ratio of K0.5 for Rattus norvegicus Sprague-Dawley (rat) striatum dopamine D2 receptor to K0.5 for Sprague-Dawley Rattus norvegicus (rat) striatum dopamine D1 receptor. It is filed as tissue-based.

On to `Oc1cc2c(cc1O)[C@H]1c3ccccc3CN[C@@H]1CC2` (relative stereo), for which the Ratio amounted to 10.

These data come from ChEMBL document CHEMBL3046349, “Novel Mechanisms of Drug Action: Functional Selectivity at D2 Dopamine Receptors” (Med Chem Res, 2004).
